Results as given in patent publication US5747482A, “Methods and compositions to inhibit keratinocyte proliferation” (priority 1996, dated 1998).
Read-outs that look alike come from different tables or passages of the source.

Tests used:
keratinocyte cells [1] = type: cell-based, human; settings: for induction of apoptosis: 24 hours treatment
Description: (§1) Adult human keratinocytes from pooled donor skin were obtained from commercial sources (Cascade Biologics, Portland, Oreg., U.S.A.) and placed in 150 cm^2 bottom area culture flasks using culture medium 154 supplemented with HKGS (about 1%). At 80% confluency, cells were harvested with trypsin and cryopreserved until required.
The induction of apoptosis is a critical feature in the programmed cell death as it relates to disease conditions such as cancer, psoriasis, etc. where the uncontrolled proliferation of "immortal" cells such as keratinocytes is a causative feature of the disease. This example compares the ability of gallium maltol to induce apoptosis as compared to negative control (no gallium maltol), and positive control (CAM--an agent known to strongly induce apoptosis). The ability for gallium maltol to effect apoptosis was also measured by the inhibitory effect of ATA.
Specifically, keratinocyte cells were grown using medium 154 in 24 well plates seed with 2,500 cells/cm^2 as described above. Cultures were continued for 3 or 6 days when the cells had achieved about 20 or 60% confluence respectively. On these 2 occasions, media were aspirated from groups of 3 or 4 wells and replaced with high Ca^+2 medium either without supplement or with one of the following supplements:
1. Gallium maltol at a final concentration of one of the following: (a) 5×10^-4 M, (b) 1×10^-4 M, (c) 5×10^-5 M, (d) 1×10^-5 M, and (e) 1×10^-6 M;
4. As in (3) plus CAM at 1×10^-5 or 1×10^-6 M; and
5. As in (3) plus gallium maltol at 1×10^-4 or 2.5×10^-4 M;
(§2) Culture was renewed for a further 24 hours. At this time, media were removed and discarded, and the cells lysed with 200 μL/well of the solution provided in the Cell Death Detection Kit ELISA Plus (Boehringer Mannheim Biochemicals, Indianapolis, Ind., U.S.A., catalogue number 1774425). Aliquots of the lysate (20 μL) from each of 2 or 3 wells were assayed for nucleosomal enrichment following the kit instructions.

keratinocyte cells [2] = type: cell-based, human; settings: gallium nitrate 5×10^-4 M; maltol 15×10^-4 M; 2 days treatment, 1.2 mM Ca^+2; FIG. 7
Description: as §1, §2
The evaluation of apoptosis of keratinocytes was conducted to determine the relative affect on apoptosis achieved by gallium maltol, gallium nitrate and maltol. Specifically, keratinocyte cells were seeded in 12 well plates seed using culture medium 154. Cultures were continued for 4 days and the medium was changed to medium 154 with 1.2 mM Ca^+2 either without supplement or with one of the following supplements:
1. gallium maltol at a final concentration of 5×10^-4 M;
2. gallium nitrate at a final concentration of 5×10^-4 M;
3. maltol at a concentration of 15×10^-4 M; and
4. CAM at a concentration of 1×10^-5 M.
Three (3) wells were used in each group. The final amount of medium was 300 μL in each well. Culture was continued for 2 days. Bars represent absorbance at 405 nm minus the absorbance at 492 nm.

[3] = oral; cited from earlier work
Keratinocytes = assay: Comparison of keratinocyte growth inhibition by gallium maltol, gallium nitrate and maltol, Example 3; type: cell-based, human; settings: gallium nitrate 1×10^-4 M; maltol 3×10^-4 M; 9 days, high Ca^+2 medium; FIG. 3
Description: as §1
At the start of the experiments, the required number of vials of keratinocytes was thawed, and the keratinocytes were placed in culture in 24 well plates at about 2,500 cells/cm^2 using the same culture medium as described above. After 24 hours (to allow attachment), the medium was changed to fresh 154 supplemented with HKGS (about 1%) and gallium maltol. Specifically, the fresh medium was prepared by addition of a sufficient amount of a stock solution to provide for six different compositions having a final gallium concentration of 10^-4 M, 10^-5 M, 10^-6 M, 10^-8 M, 10^-10 M, and 10^-12 M. The stock solution was prepared by adding 22.25 mg of gallium maltol to 50 mL of 154 medium and then passing the solution through a 0.2 μm filter and storing at 4° C.
When control cells were about 40% confluent (generally at 4-5 days in culture, all media were removed by aspiration, keratinocyte growth was assayed by crystal violet staining and conversion to cell numbers as described by Wilkinson, et al.^11. Specifically, cell layers rinsed in PBS, which was also aspirated, and 4 drops of crystal violet solution added to each well. The crystal violet solution was prepared by dissolving crystal violet (Fisher Scientific) in PBS:formaldehyde:ethanol (67:3:30%) to give a 0.5 w/v solution. A blank 24-well plate was treated similarly.
Keratinocytes were cultured in 24-well plates for 9 days in the manner described above in Example 2. […]
The cells were then cultured and subsequently evaluated for inhibition of keratinocyte proliferation in the manner described above.

## O=C(O)C1=CC(=C(c2ccc(O)c(C(=O)O)c2)c2ccc(O)c(C(=O)O)c2)C=CC1=O [ATA, aurin tricarboxylic acid, reference compound]
Keratinocyte cells [1]; 1×10^-4 M ATA + 1×10^-5 M CAM, cultured 3 days prior, FIG. 5
  reduction of CAM-induced apoptosis: reduced by half
Keratinocyte cells [1]; 1×10^-4 M ATA + 1×10^-6 M CAM, cultured 6 days prior, FIG. 6
  reduction of CAM-induced apoptosis: reduced by half

## Cc1occc(=O)c1O [maltol, 3-hydroxy-2-methyl-4-pyrone]
Keratinocyte cells [2]
  effect on apoptosis: no significant effect on apoptosis
[3]
  toxicity when taken orally: very low toxicities when taken orally
Keratinocytes
  effect on keratinocyte proliferation: neither gallium nitrate nor maltol had any effect on keratinocyte proliferation

## CC[C@@]1(O)C(=O)OCc2c1cc1n(c2=O)Cc2cc3ccccc3nc2-1 [CAM, camptothecin, reference compound]
Keratinocyte cells [1]; 1×10^-5 M, cultured 3 days prior, FIG. 5
  induction of apoptosis: strongly induced apoptosis
Keratinocyte cells [1]; 1×10^-6 M, cultured 6 days prior, FIG. 6
  induction of apoptosis: strongly induced apoptosis

## CCc1occc(=O)c1O [ethyl maltol, 3-hydroxy-2-ethyl-4-pyrone]
[3]
  toxicity when taken orally: very low toxicities when taken orally

## O=[N+]([O-])[O-].O=[N+]([O-])[O-].O=[N+]([O-])[O-].[Ga+3] [gallium nitrate]
Keratinocyte cells [2]
  effect on apoptosis: no significant effect on apoptosis
Keratinocytes
  effect on keratinocyte proliferation: neither gallium nitrate nor maltol had any effect on keratinocyte proliferation
